The numbers were not newly measured in patent US8748481B2, “Method for treating gastrointestinal disorder” (Sucampo AG, priority 2004, dated 2014), which cites them from elsewhere.

The data set deals with patients with IBS with constipation / chronic idiopathic constipation. The following applies: cited from earlier work.

SMILES strings stand for the structures. Structures can show the parent of a compound that is named as a salt.

`[H]/N=C(/NCCCCC)N/N=C/c1c[nH]c2ccc(OC)cc12` [Zelnorm®, tegaserod maleate]: the “Return of symptoms after stopping” value (after patients stop taking the drug) is reported as “may return within 1 or 2 weeks”. Also, the “Treatment effect over placebo in patients aged 65 years and older” value (subgroup analyses) was “no significant treatment effect”. The “Response rates vs. placebo in males” value (two randomized, placebo-controlled, double-blind studies enrolling 288 males) is “no significant differences”.
